The text below walks through data of PubChem BioAssay (NCI).

Values joined by “and” are separate entries in the source; they are usually repeats but may differ in a detail not shown here. Identical values can stand only once.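 Compound exposure: 48 hours, 5 concentrations, 96-well plates. Abbreviation: GI50, concentration required for 50% inhibition of growth. At the TGI there is no net growth.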 Bounds are passed on as bounds.

Holding throughout (experiment): DTP human tumour cell line panel, 48 h
Assay [1] relates to UACC-257 melanoma.
The test system of assay [2] is NCI-H23 lung.
The test system of assay [3] is SR leukemia.
The subject of assay [4] is MDA-MB-435.
For assay [5], the system named is HS 578T breast.
In assay [6] the test system is CCRF-CEM leukemia.
For assay [7], the system named is BT-549 breast.
The test system of assay [8] is NCI-H460 lung.
Assay [9] relates to HL-60(TB) leukemia.
Assay [10] has as its system NCI/ADR-RES ovarian.

What is called GI50 is the concentration that inhibits growth by half. The term TGI denotes the concentration at which net growth stops. For the molecule `C[C@H]1CCC/C=C/C2CC(OC(=O)CN(C)C)CC2C(OC(=O)CN(C)C)/C=C/C(=O)O1` (stereo not given in full), the 50% growth inhibitory concentration (GI50) in assay [1] was 0.342 µM; in assay [2], 0.359 µM; in assay [3] it was 0.38 µM; in assay [4], 0.408 µM; in assay [5] it was 30.1 µM; in assay [6], 0.647 µM. The GI50 in [7] was 0.459 µM; in assay [8], 1.09 µM; in assay [9] it was 0.682 µM. The TGI is 27.5 µM in assay [1]; 1.92 µM in assay [2]; 10.1 µM in assay [3]; over 100 µM in [4]; over 100 µM in [5]; over 40.6 µM in assay [6]. Also, the total growth inhibition concentration (TGI) was 74.9 µM in assay [7], 31.2 µM in assay [8] and 7.47 µM in [9].
For `Cc1ccccc1NC(=O)CC1C(=O)Nc2ccccc2S1=O` (stereo not given), the TGI in assay [1], in assay [2], in assay [3], in assay [6], in assay [8] and in assay [9] was over 100 µM in each case.
For the molecule `CC(=O)Nc1ccccc1-c1nc2ccccc2nc1-c1ccccc1`, the TGI in [1], in [2], in assay [3], in assay [6], in [8] and in assay [9] was over 100 µM throughout.
Regarding `CN(C)c1ccc(C(=S)c2ccc(N(C)C)cc2)cc1`, the GI50 was 16.2 µM in assay [1]; 7.28 µM in [2]; 3.75 µM in assay [3]; 2.4 µM in assay [10]; 3.84 µM in assay [5]; 6.64 µM in assay [6]. Moreover, the GI50 in assay [7] is 6.76 µM; in assay [8] it was 3.97 µM; in [9] it was 4.17 µM. Also, the TGI in assay [1] is over 100 µM; in assay [2] it was over 100 µM; in [3], 92.6 µM; in assay [10], 7.66 µM; in [5] it was over 100 µM; in assay [6] it was over 100 µM. The TGI in assay [7] was 90.1 µM; in assay [8] it was over 100 µM; in [9], over 100 µM.
On to `Cc1ccccc1/C=C/c1csnn1`, for which the TGI in assay [1] is over 100 µM; in assay [2], over 100 µM; in assay [3] it was over 100 µM; in assay [6], over 100 µM; in assay [8], over 75.6 µM; in assay [9], 39 µM.
On to `CCOC(=O)c1oc2c(OC)ccc3c2c1CCC3`, for which the TGI in assay [1] was 10.9 µM; in assay [2], over 100 µM; in [3] it was over 100 µM; in assay [6] it was over 100 µM; in assay [8], over 100 µM; in [9] it was over 100 µM.
Regarding `C[C@@H](C1CC[C@H]2[C@@H]3[C@@H]4O[C@@H]4[C@@]4(O)CC=CC(=O)[C@]4(C)[C@H]3C[C@H](O)[C@]12C)[C@H]1C[C@]2(C)O[C@]2(C)C(=O)O1` (stereo not given in full), the TGI in assay [1], in assay [2], in assay [4], in assay [10], in assay [5] and in assay [6] was over 100 µM in each case. The TGI in assay [8] and in assay [9] was over 100 µM throughout.
On to `Clc1ccc(-c2cc(-c3ccccc3)nc(N3CCN(CCCNc4ccnc5cc(Cl)ccc45)CC3)n2)cc1`, for which the GI50 is 1.93 µM in assay [1]; 1.73 µM in assay [4]; 1.75 µM in [10]; 1.86 µM in assay [5]; 1.68 µM in [7]; 1.56 µM in [8]. In addition, in [9], the GI50 is 1 µM. For the same molecule, the TGI in assay [1] amounted to 3.89 µM; in [4], 3.16 µM; in assay [10] it was 3.53 µM; in assay [5] it was 4.38 µM; in assay [7], 3.23 µM; in assay [8], 3.1 µM. This molecule also registered a TGI in [9] of 2.83 µM.
With `O=C1c2c(O)cccc2C(C(=O)CCCCCC(=O)C2c3cccc(O)c3C(=O)c3c(O)cccc32)c2cccc(O)c21`, the GI50 was 3.9 µM in assay [1], 3.94 µM in assay [2], 2.05 µM in [6] and 1.57 µM in assay [8]. Further, the TGI in assay [1] is 2.73 µM and 10.6 µM; in [2], 1.88 µM and 12.9 µM; in assay [3], 4.33 µM; in assay [6] it was 25 µM and 13.6 µM; in assay [8], 1.62 µM and 5.23 µM; in assay [9], 5.35 µM and 4.77 µM.
As to `NC(Cc1ccccc1)C(=O)OCN1C(=O)C2C3C=CC(C2C1=O)C1C2C(=O)N(COC(=O)C(N)Cc4ccccc4)C(=O)C2C31` (stereo not given), the TGI in [1] was 67.1 µM and 50.1 µM; in [2], 38.1 µM and 42.7 µM; in [3] it was 50.3 µM; in [6], 50.3 µM and > 100 µM; in assay [8], 27.4 µM and 30.8 µM; in assay [9], 43.5 µM and > 100 µM.
For `Cc1ccc2c(c1)[n+](=O)c(C(=O)c1cccs1)c(C(F)(F)F)n2[O-]`, the GI50 in assay [1] is 2.28 µM and 0.237 µM; in [2], 0.854 µM; in assay [3], 0.152 µM; in assay [4] it was 1.37 µM and 1.22 µM; in [10], 1.14 µM and 0.524 µM; in [6] it was 1.72 µM. Also, the GI50 was 0.603 µM in assay [7]; 0.616 µM and 0.359 µM in assay [8]; 1.5 µM and 0.713 µM in assay [9]. For the same molecule, the TGI in assay [2] was 2.59 µM; in assay [3] it was 50 µM; in assay [4] it was 5.41 µM and 9.08 µM; in assay [10], 10.3 µM and 10.1 µM; in assay [6] it was 50 µM; in [7], 1.97 µM. Besides, in assay [9], the total growth inhibition concentration (TGI) is 33.7 µM and 57.3 µM.
Consider `CC[C@@]1(O)C(=O)OCc2c1cc1n(c2=O)Cc2cc3cc(Cl)ccc3nc2-1`, for which the GI50 in assay [1] was 0.0389 µM and 0.0857 µM; in [2], 0.00226 µM; in [3], 0.00232 µM and 0.0143 µM; in assay [4], 0.089 µM; in assay [5] it was 0.445 µM; in assay [7], 0.0562 µM. In addition, the GI50 in [8] was under 0.001 µM; in assay [9], 0.00156 µM and 0.0131 µM. Moreover, the TGI in assay [1] is 0.953 µM and 1.11 µM; in assay [2], 0.00545 µM and 0.0196 µM; in assay [4], 0.357 µM; in assay [6], over 100 µM; in assay [7], 2.44 µM; in [8], 0.0118 µM.
In the case of `Cc1cc2c(cc1Cl)SC(N(c1ccccc1Cl)S(=O)(=O)c1ccc(Br)s1)=NS2(=O)=O`, the GI50 in [2] is 19.9 µM; in [3], 23.8 µM; in assay [4], 13.2 µM; in [10], 17.2 µM; in assay [5] it was 18 µM; in assay [6], 25.8 µM. In addition, the GI50 was 13.9 µM in [8] and 16.4 µM in assay [9]. Moreover, the TGI is 56.4 µM in assay [2]; 83.4 µM in assay [3]; 31.6 µM in assay [4]; 41.3 µM in assay [10]; 41.4 µM in [5]; 82.1 µM in assay [6]. Also, the values for the TGI in [8] and in assay [9] were 36.3 µM and 41.9 µM, respectively.
Take `N#CCCN(CCC#N)c1ccc(/C=C(/NC(=O)c2cc([N+](=O)[O-])ccc2Cl)C(=O)N=[N+]=[N-])cc1`: the TGI in assay [1], in assay [2], in assay [3], in assay [6], in assay [8] and in assay [9] was over 100 µM in each case.
On to `CCn1cnc(C[C@H](NC(=O)[C@H](CCCCNC(=O)Nc2cc(C(F)(F)F)cc(C(F)(F)F)c2)NC(=O)Nc2cc(C(F)(F)F)cc(C(F)(F)F)c2)C(=O)OC)c1`, for which the GI50 is over 10 µM in [1]; 5.98 µM in assay [2]; 8.46 µM in assay [4]; over 10 µM in [10]; 4.49 µM in assay [5]; 3.04 µM in [6]. Besides, the GI50 is over 10 µM in assay [7] and 3.43 µM in [8]. Further, the TGI in assay [1], in assay [2], in assay [4], in assay [10], in assay [5] and in assay [6] was over 10 µM in each case. Also, the TGI in assay [7] and in assay [8] was over 10 µM each time.
As to `OCC1NC(COC2OC(CO)C(O)C(O)C2O)C(O)C(O)C1O` (stereo not given), the TGI in assay [1], in assay [2], in assay [3], in assay [4], in assay [10] and in [6] was over 100 µM each time. The TGI in assay [7], in [8] and in assay [9] was over 100 µM throughout.
Regarding `CC(Oc1cc2oc(=O)cc(-c3ccccc3)c2cc1Cl)C(=O)O` (stereo not given), the TGI in assay [1], in [2], in [3], in assay [6], in assay [8] and in [9] was over 100 µM in each case.
Regarding `CN1CCN(CCCOc2cccc3nc(Nc4cc(Cl)cc(Cl)c4)ccc23)CC1`, the GI50 is 1.97 µM in [1]; 1.72 µM in [2]; 1.68 µM in [4]; 1.72 µM in assay [10]; 2.5 µM in assay [5]; 3.43 µM in assay [7]. Moreover, the GI50 in assay [8] was 1.84 µM. Further, the TGI in assay [1] was found to be 3.54 µM; in assay [2], 3.32 µM; in assay [4], 3.2 µM; in [10] it was 3.29 µM; in assay [5], 7.07 µM; in assay [7], 13.9 µM. Further, in [8], the TGI is 3.43 µM.
Take `O/N=C1/CCC/C1=C\c1ccccc1`: the TGI in assay [1], in assay [2], in assay [3], in assay [6], in [8] and in assay [9] was over 100 µM in each case.
As for `CC(C)C[C@H](CC(=O)O)C(=O)N[C@@H](Cc1c[nH]c2ccccc12)C(=O)N[C@@H](C)c1ccccc1`, the GI50 in assay [1], in assay [2], in assay [4], in [10], in assay [5] and in assay [6] was over 25 µM each time. In addition, the GI50 in assay [7] and in assay [8] was over 25 µM in each case. In addition, the TGI in [1], in assay [2], in [4], in assay [10], in [5] and in assay [6] was over 25 µM in each case. Further, the TGI in [7] and in assay [8] was over 25 µM throughout.
For the molecule `O=C1OC(CC(=O)c2ccc(F)cc2)C(Cl)=C1Cl` (stereo not given), the TGI was 33.6 µM in [1]; 93.5 µM in assay [2]; 79 µM in assay [3]; over 100 µM in [6]; 52.2 µM in assay [8]; 62 µM in [9].
As to `C/C(NNC(=O)c1ccccc1O)=C1\C=Nc2ccccc2S1`, the TGI in [1] was over 100 µM; in assay [2], over 100 µM; in assay [3], over 100 µM; in assay [6], over 100 µM; in assay [8] it was 24.7 µM; in [9], 41.9 µM.
With `O=C(CCC(=O)Nc1ccccc1C(F)(F)F)N/N=C1\C(=N\NC(=O)CCC(=O)Nc2ccccc2C(F)(F)F)C(c2ccc3c(c2)OCO3)Oc2ccccc21` (stereo not given), the concentration for total growth inhibition (TGI) in assay [1] was over 100 µM; in [2], over 100 µM; in [3] it was over 100 µM; in assay [6], 66.3 µM; in [8] it was over 100 µM; in [9], over 100 µM.
Turning to `Oc1ccc2ccccc2c1CCc1c(O)ccc2ccccc12`, the TGI in [1] is 27.2 µM; in assay [2], 26.1 µM; in [3] it was 32.6 µM; in [4], 25.4 µM; in [10], 31.1 µM; in assay [5] it was 45.1 µM. Besides, the TGI in assay [6] worked out at 25.2 µM; in assay [8], 22.2 µM; in assay [9], 40.9 µM.
As for `C/C(=N\Nc1ccccc1)c1sc(-c2nc(C)c(/C(C)=N/Nc3ccccc3)s2)nc1C`, the TGI is over 70.4 µM in assay [1]; over 100 µM in assay [2]; over 100 µM in assay [3]; over 100 µM in [6]; over 100 µM in assay [8]; over 100 µM in assay [9].
